Structures can show the parent of a compound that is named as a salt.
Key:
[1] = Stability in buffer at various pH values; assay type: physicochemical
Description: b) Stability in Buffer at Various pH Values:
0.3 mg of the test substance is weighed into a 2 ml HPLC vial and 0.5 ml of acetonitrile or acetonitrile/DMSO (9:1) is added. The substance is dissolved by putting the sample vessel in an ultrasonic bath for about 10 seconds. Then 0.5 ml of the respective buffer solution is added, and the sample is again treated in the ultrasonic bath.
pH 2: 0.03 mol of citric acid, 0.061 mol of sodium chloride and 0.0082 mol of hydrochoric acid ad 1 liter of water;
pH 4: 1 liter of Millipore water is adjusted to pH 4.0 with 1 N hydrochloric acid;
pH 5: 0.096 mol of citric acid and 0.2 mol of sodium hydroxide ad 1 liter of water;
pH 6: 0.06 mol of citric acid and 0.16 mol of sodium hydroxide ad 1 liter of water;
pH 7.4: 90.0 g of sodium chloride, 13.61 g of potassium dihydrogen phosphate and 83.35 g of 1 N sodium hydroxide solution are made up to 1 liter with water; this solution is then further diluted 1:10 with Millipore water.
pH 8: 0.013 mol of borax and 0.021 mol of hydrochloric acid ad 1 liter of water.
5 μl portions of the test solution are analyzed by HPLC for their content of unchanged test substance, and of parent substance (A) produced, every hour over a period of 24 hours at 37° C. The percentage areas of the appropriate peaks are used for quantification.
The ratios of the peak areas (F) at the respective time points in relation to the peak areas at the starting time are shown in Table 2 for representative exemplary embodiments: […]

[2] = Determination of the solubility in 5% strength aqueous dextrose solution; assay type: physicochemical; conditions: saline or isotonic, thermodynamic from solid; for solubility thermodynamic at 24 h: room temperature
Description: a) Determination of the Solubility:
The test substance is suspended in 5% strength aqueous dextrose solution. This suspension is shaken at room temperature for 24 h. After ultracentrifugation at 224 000 g for 30 min, the supernatant is diluted with DMSO and analysed by HPLC. A two-point calibration plot of the test compound in DMSO is used for quantification.
Agilent 1100 with DAD (G1315A), quat. Pump (G1311A), autosampler CTC HTS PAL, degasser (G1322A) and column thermostat (G1316A); column: Phenomenex Gemini C18, 5 μm, 50 mm×2 mm; temperature: 40° C.; eluent A: water/phosphoric acid pH 2, eluent B: acetonitrile; flow rate: 0.7 ml/min; gradient: 0-0.5 min 85% A, 15% B; ramp 0.5-3 min 10% A, 90% B; 3-3.5 min 10% A, 90% B; ramp 3.5-4 min 85% A, 15% B; 4-5 min 85% A, 15% B.
Agilent 1100 with DAD (G1315A), quat. pump (G1311A), autosampler CTC HTS PAL, degasser (G1322A) and column thermostat (G1316A); column: VDSoptilab Kromasil 100 C18, 3.5 μm, 60 mm×2.1 mm; temperature: 30° C.; eluent A: water+5 ml of perchloric acid/liter, eluent B: acetonitrile; flow rate: 0.75 ml/min; gradient: 0-0.5 min 98% A, 2% B; ramp 0.5-4.5 min 10% A, 90% B; 4.5-6 min 10% A, 90% B; ramp 6.5-6.7 min 98% A, 2% B; 6.7-7.5 min 98% A, 2% B.

[3] = system: heart rate of anesthetized rats; test: Influence on the heart rate of anesthetized rats; assay type: in vivo; conditions: maximum decrease in the first 30 min after i.v. bolus of 100 μg/kg of (A) or equivalent dosages; anesthetized male Wistar rats
Description: f) Determination of the Influence on the Heart Rate of Anesthetized Rats:
Male Wistar rats with a body weight above 250 g are employed. In the night before the experiment, the animals receive no feed but still have free access to drinking water. Preparation and investigations are carried out under Trapanal® anesthesia (100 mg/kg i.p.). Injection and infusion take place through a catheter in the jugular vein, and the blood pressure is recorded via a catheter in the femoral artery (transducer: Braun, Melsungen). After the preparation, the animals are connected to a continuous infusion of physiological saline solution to compensate fluid losses. Test substance or placebo solution are administered as bolus after an equilibration time of about 1 h. Heart rate and arterial blood pressure are recorded during the equilibration and over a period of at least 30 min after the bolus injection with the aid of a digital evaluation program.
Table 4 lists the maximum heart rate decrease in the first 30 min after an i.v. bolus of 100 μg/kg of the active substance (A) or of equivalent dosages of representative exemplary embodiments: […]

% test substance after 4 h [F(t = 4 h) × 100/F(t = 0 h)] ([1]; pH 4, 37° C.) [%]	% test substance after 24 h [F(t = 24 h) × 100/F(t = 0 h)] ([1]; pH 4, 37° C.) [%]	% test substance after 4 h [F(t = 4 h) × 100/F(t = 0 h)] ([1]; pH 7.4, 37° C.) [%]	% test substance after 24 h [F(t = 24 h) × 100/F(t = 0 h)] ([1]; pH 7.4, 37° C.) [%]	solubility thermodynamic at 24 h [2] [µg/mL]	% test substance after 24 h [F(t = 24 h) × 100/F(t = 0 h)] ([1]; pH 4, 37° C., disodium salt) [%]	% test substance after 24 h [F(t = 24 h) × 100/F(t = 0 h)] ([1]; pH 7.4, 37° C., disodium salt) [%]	solubility at 24 h [2] [µg/mL]	Compound	Heart rate decrease [3] [%]
100	100	100	100	–	–	–	–	CC(C)[C@H](NC(=O)CCN)C(=O)OCCOc1ccc(-c2c(C#N)c(N)nc(SCc3csc(-c4ccc(Cl)cc4)n3)c2C#N)cc1 [Example 2, 2-{4-[2-Amino-6-({[2-(4-chlorophenyl)-1,3-thiazol-4-yl]methyl}thio)-3,5-dicyanopyridin-4-yl]-phenoxy}ethyl β-alanyl-L-valinate hydrochloride]	–
100	100	99	55	450	–	–	–	CC(C)[C@H](NC(=O)[C@@H](N)CCCNC(=N)N)C(=O)OCCOc1ccc(-c2c(C#N)c(N)nc(SCc3csc(-c4ccc(Cl)cc4)n3)c2C#N)cc1 [Example 3, 2-{4-[2-Amino-6-({[2-(4-chlorophenyl)-1,3-thiazol-4-yl]methyl}thio)-3,5-dicyanopyridin-4-yl]-phenoxy}ethyl L-arginyl-L-valinate dihydrochloride]	–
100	100	100	100	–	–	–	–	N#Cc1c(N)nc(SCc2csc(-c3ccc(Cl)cc3)n2)c(C#N)c1-c1ccc(OCCOC(=O)CC[C@H](NC(=O)CCC(=O)O)C(=O)O)cc1 [Example 9, (2S)-5-(2-{4-[2-Amino-6-({[2-(4-chlorophenyl)-1,3-thiazol-4-yl]methyl}thio)-3,5-dicyanopyridin-4-yl]phenoxy}ethoxy)-2-[(3-carboxypropanoyl)amino]-5-oxopentanoic acid]	–
–	–	–	–	390	99	99	–	N#Cc1c(N)nc(SCc2csc(-c3ccc(Cl)cc3)n2)c(C#N)c1-c1ccc(OCCOC(=O)CC[C@H](NC(=O)CCC(=O)O)C(=O)O)cc1 [Example 10, (2S)-5-(2-{4-[2-Amino-6-({[2-(4-chlorophenyl)-1,3-thiazol-4-yl]methyl}thio)-3,5-dicyanopyridin-4-yl]phenoxy}ethoxy)-2-[(3-carboxypropanoyl)amino]-5-oxopentanoic acid disodium salt]	–
100	100	90	55	> 500	–	–	–	CC(C)C[C@H](NC(=O)[C@@H](N)CCCCN)C(=O)OCCOc1ccc(-c2c(C#N)c(N)nc(SCc3csc(-c4ccc(Cl)cc4)n3)c2C#N)cc1 [Example 11, 2-{4-[2-Amino-6-({[2-(4-chlorophenyl)-1,3-thiazol-4-yl]methyl}sulfanyl)-3,5-dicyanopyridin-4-yl]-phenoxy}ethyl L-lysyl-L-leucinate dihydrochloride]	–
99	98	49	2	> 500	–	–	–	C[C@@H](NC(=O)[C@@H](N)CCCCN)C(=O)OCCOc1ccc(-c2c(C#N)c(N)nc(SCc3csc(-c4ccc(Cl)cc4)n3)c2C#N)cc1 [Example 12, 2-{4-[2-Amino-6-({[2-(4-chlorophenyl)-1,3-thiazol-4-yl]methyl}sulfanyl)-3,5-dicyanopyridin-4-yl]-phenoxy}ethyl L-lysyl-D-alaninate dihydrochloride]	–
100	99	24	0	> 500	–	–	–	N#Cc1c(N)nc(SCc2csc(-c3ccc(Cl)cc3)n2)c(C#N)c1-c1ccc(OCCOC(=O)CC[C@@H](N)C(=O)NCCN)cc1 [Example 13, 2-{4-[2-Amino-6-({[2-(4-chlorophenyl)-1,3-thiazol-4-yl]methyl}sulfanyl)-3,5-dicyanopyridin-4-yl]-phenoxy}ethyl N-(2-aminoethyl)-D-α-glutaminate dihydrochloride]	–
100	100	68	8	> 500	–	–	–	C[C@H](NC(=O)[C@@H](N)CCCNC(=N)N)C(=O)OCCOc1ccc(-c2c(C#N)c(N)nc(SCc3csc(-c4ccc(Cl)cc4)n3)c2C#N)cc1 [Example 14, 2-{4-[2-Amino-6-({[2-(4-chlorophenyl)-1,3-thiazol-4-yl]methyl}sulfanyl)-3,5-dicyanopyridin-4-yl]-phenoxy}ethyl L-arginyl-L-alaninate dihydrochloride]	–
–	–	–	–	450	–	–	–	C[C@H](NC(=O)[C@@H](N)Cc1cnc[nH]1)C(=O)OCCOc1ccc(-c2c(C#N)c(N)nc(SCc3csc(-c4ccc(Cl)cc4)n3)c2C#N)cc1 [Example 15, 2-{4-[2-Amino-6-({[2-(4-chlorophenyl)-1,3-thiazol-4-yl]methyl}sulfanyl)-3,5-dicyanopyridin-4-yl]-phenoxy}ethyl L-histidyl-L-alaninate dihydrochloride]	–
–	–	–	–	> 500	–	–	–	N#Cc1c(N)nc(SCc2csc(-c3ccc(Cl)cc3)n2)c(C#N)c1-c1ccc(OCCOC(=O)CNC(=O)[C@@H](N)CCCCN)cc1 [Example 17, 2-{4-[2-Amino-6-({[2-(4-chlorophenyl)-1,3-thiazol-4-yl]methyl}sulfanyl)-3,5-dicyanopyridin-4-yl]-phenoxy}ethyl L-lysylglycinate dihydrochloride]	–
–	–	–	–	450	–	–	–	N#Cc1c(N)nc(SCc2csc(-c3ccc(Cl)cc3)n2)c(C#N)c1-c1ccc(OCCOC(=O)[C@H](Cc2ccccc2)NC(=O)[C@@H](N)CCCCN)cc1 [Example 18, 2-{4-[2-Amino-6-({[2-(4-chlorophenyl)-1,3-thiazol-4-yl]methyl}sulfanyl)-3,5-dicyanopyridin-4-yl]-phenoxy}ethyl L-lysyl-L-phenylalaninate dihydrochloride]	–
–	–	–	–	–	–	–	< 0.1	N#Cc1c(N)nc(SCc2csc(-c3ccc(Cl)cc3)n2)c(C#N)c1-c1ccc(OCCO)cc1 [compound (A), 2-amino-6-({[2-(4-chlorophenyl)-1,3-thiazol-4-yl]methyl}thio)-4-[4-(2-hydroxy-ethoxy)phenyl]pyridine-3,5-dicarbonitrile, reference compound]	24
